Experimental data from US20100062078A1, “PHARMACEUTICAL COMPOSITION FOR TREATING CANCER AND THE SIGNALING PATHWAY THEREOF” (priority 2008, published 2010).

How the values were obtained:
[1] = XTT cell proliferation assay (cytotoxicity); assay type: cell-based
Description: (§1) Cells were seeded at 7×10^3 per well in 96-well culture plates before treatment with different concentrations of protoapigenone for 12, 24 and/or 48 hours. Next, the cytotoxicity of protoapigenone was determined using XTT cell proliferation assay (Sigma, St. Louis, Mo.). The absorbance of wavelength at 490 nm (OD490) and 650 nm (OD650) were determined respectively by enzyme-linked immunosorbent assay (ELISA) reader, and 50% of inhibitory concentration (IC50) was calculated by the value of OD490-OD650. In addition, in order to evaluate the long-term effect, the cells were treated with different concentration of protoapigenone for 3 hours, then were incubated with fresh medium for 14 days so as to form colonies. Finally, the cells were stained with crystal violet and were observed under the microscope.

C33A = assay: XTT cell proliferation assay (cytotoxicity); assay type: cell-based; conditions: Homo sapiens, C-33-A; cervical cancer cell line C33A
Description: as §1

HeLa [2] = assay: XTT cell proliferation assay (cytotoxicity); assay type: cell-based; conditions: Homo sapiens; cervical cancer cell line HeLa
Description: as §1

MDA-MB-468 = assay: XTT cell proliferation assay (cytotoxicity); assay type: cell-based; conditions: Homo sapiens; breast cancer cell line MDA-MB-468
Description: as §1

SKOV3 [3] = assay: XTT cell proliferation assay (cytotoxicity); assay type: cell-based; conditions: Homo sapiens, SK-OV-3; ovarian cancer cell line SKOV3
Description: as §1

T47D = assay: XTT cell proliferation assay (cytotoxicity); assay type: cell-based; conditions: Homo sapiens; breast cancer cell line T47D
Description: as §1

LNCap [4] = assay: XTT cell proliferation assay (growth inhibition); assay type: cell-based, human; conditions: Homo sapiens; LNCap, 48-hour treatment
Description: as §1

T24 = assay: XTT cell proliferation assay (growth inhibition); assay type: cell-based, human
Description: as §1

MDAH-2774 = assay: Cell cycle and sub-G1 analysis (PI flow cytometry); assay type: cell-based, human; conditions: MDAH-2774, 24 hours
Description: (§2) The ovarian cancer cells and the prostate cancer cells respectively were treated with protoapigenone at different concentrations (0, 2.5, 5 and 10 μM) for 24 hours and 6 hours (or 12 hours). These cells were harvested by trypsin and fixed with 70% ethanol for 1 hour, washed with phosphate buffered saline (PBS) twice, and resuspended in propidium iodide (PI)/RNase A solution for 30 minutes. In accordance with the mechanism of DNA stained with propidium iodide, the cell cycle and sub-G1 distribution were detected by the FACScan flow cytometry (Becton Dickinson, San Jose, Calif.), and data analysis was done with CellQuest software (BD Bioscience).

SKOV3 [5] = assay: Cell cycle and sub-G1 analysis (PI flow cytometry); assay type: cell-based, human; conditions: SKOV3, 24 hours
Description: as §2

HeLa [6] = assay: Cell cycle distribution; assay type: cell-based, human
LNCap [7] = assay: TUNEL assay; assay type: cell-based, human; conditions: LNCap, 2.5, 5 and 10 μM, 12 or 24 hours
Description: TUNEL assay is performed to detect whether cellular DNA is fragmented. The prostate cancer cells were treated with protoapigenone at various concentrations (2.5, 5 and 10 μM) for 12 or 24 hours, then were stained with TUNEL using the DeadEnd Colorimetric TUNEL system (Promega, Madison, Wis.). In brief, the prostate cancer cells were fixed with 4% paraformaldehyde for 30 minutes after protoapigenone treatment. Next, the fixed cells were incubated with digoxigenin-conjugated dUTP and nucleotide mixture in a recombinant terminal deoxynucleotide transferase-catalyzed reaction in the humidified atmosphere at 37° C. Subsequently, they were immersed in the stop buffer for 15 minutes at 37° C. The Cells were washed with PBS, then were incubated in DAB solutions for 15 minutes in dark. The stained cells were observed under the microscope. The percentage of TUNEL-positive cells were counted in 1000 cells, and the apoptosis index in the later period was calculated.

JNK½ = assay: Immunoblotting, phosphorylation in LNCap cells; assay type: cell-based, human; conditions: exposure for 1 hour
Description: (§3) The concentration of protein supernatant was further determined using the Bio-Rad protein assay kit (Bio-Rad Laboratories, Hercules, Calif.). Whole cell lysates were separated on polyacrylamide sodium dodecyl sulfate (SDS) gels and the proteins were transferred onto the nitrocellulose membrane. Proteins were detected sequentially by the specific primary antibodies, followed by peroxidase-conjugated secondary antibodies, and visualized by the Enhanced chemiluminescence detection system (Amersham, N.J.).

p38 MAPK = assay: Immunoblotting, phosphorylation in LNCap cells; assay type: cell-based, human; conditions: LNCap, exposure for 1 hour
Description: as §3

For `O=C1C=CC(O)(c2cc(=O)c3c(O)cc(O)cc3o2)C=C1` [protoapigenone], the IC50 ([1]; HOSE 6-3 immortalized ovarian epithelial cells, immortalized human ovarian epithelial cells HOSE 6-3) was 8.98 ± 0.33 µM, the IC50 ([1]; HOSE 11-12 immortalized ovarian epithelial cells, immortalized human ovarian epithelial cells HOSE 11-12) was 10.1 ± 0.53 µM and the IC50 ([1]; MCF-10A immortalized breast epithelial cells, immortalized human breast epithelial cell MCF-10A) was 33.6 ± 0.53 µM. The IC50 (C33A) was 4.69 ± 0.21 µM, the IC50 (HeLa [2]) was 3.66 ± 0.61 µM and the IC50 (MDA-MB-468) was 3.33 ± 1.25 µM. It also gave an IC50 (SKOV3 [3]) of 0.78 ± 0.28 µM, an IC50 (T47D) of 5.13 ± 0.23 µM and an IC50 (LNCap [4]) of 3.7 ± 0.2 µM. The IC50 (T24; Homo sapiens, T-24, bladder cancer T24) was 5.52 ± 0.598 µM, the growth inhibition (T24; T24, various concentrations) was “dose-dependent and time-dependent” and the “apoptotic sub-G1 peak” value (MDAH-2774) was “increases the apoptotic sub-G1 peak”. For the same compound, the cell cycle distribution (MDAH-2774; various concentrations) was “enter into S and G2/M phases”, the “apoptotic sub-G1 peak” value (SKOV3 [5]) was “increases the apoptotic sub-G1 peak” and the cell cycle distribution (SKOV3 [5]; various concentrations) was “enter into S and G2/M phases”. The cell cycle distribution (HeLa [6]) was “arrested at G2/M phase”, the “ratio of TUNEL positive cells” value (LNCap [7]) was “increased along with time and the increased protoapigenone concentrations” and the “phosphorylation of JNK½” value (JNK½) was “dramatic increase”. The “phosphorylation of p38 MAPK” value (p38 MAPK) was “dramatic increase”.
